Results on 1 compound are retold here after publication PMC6331730 (The EMBO Journal, 2018).

Structures are written as SMILES.

The test system of the assay is Purified tubulin with GST-tagged CPAP PN2-3 (pull-down). The experiment in a line: GST-PN2-3 pull-down, semi-quantitative Western blot. The class given is binding. Particulars: protein-protein interaction inhibition.

For the compound `COc1ncc2cc3ccccc3nc2c1C#N` [CCB02, 3‐Methoxybenzo[b][1,6]naphthyridine‐4‐carbonitrile], the IC50 is ~441 nM.
